Laboratory results as given in ChEMBL document CHEMBL1138749, “N-Phenyl-4-pyrazolo[1,5-b]pyridazin-3-ylpyrimidin-2-amines as potent and selective inhibitors of glycogen synthase kinase 3 with good cellular efficacy” (J Med Chem, 2004).

Tests used:
[1] = target: Glycogen synthase kinase-3 beta (Homo sapiens, UniProt P49841)
Description: Binding affinity for human glycogen synthase kinase 3 beta

[2] = target: Cyclin-dependent kinase 2 (Homo sapiens, UniProt P24941)
[3] = target: Glycogen synthase kinase-3 beta (Rattus norvegicus, UniProt P18266); assay: Effective concentration to increase glycogen deposition in rat skeletal muscle L6 myoblast cells; assay type: functional, cell-based
Chain of Glycogen synthase kinase-3 beta (Rattus norvegicus, UniProt P18266) (P18266 whole entry): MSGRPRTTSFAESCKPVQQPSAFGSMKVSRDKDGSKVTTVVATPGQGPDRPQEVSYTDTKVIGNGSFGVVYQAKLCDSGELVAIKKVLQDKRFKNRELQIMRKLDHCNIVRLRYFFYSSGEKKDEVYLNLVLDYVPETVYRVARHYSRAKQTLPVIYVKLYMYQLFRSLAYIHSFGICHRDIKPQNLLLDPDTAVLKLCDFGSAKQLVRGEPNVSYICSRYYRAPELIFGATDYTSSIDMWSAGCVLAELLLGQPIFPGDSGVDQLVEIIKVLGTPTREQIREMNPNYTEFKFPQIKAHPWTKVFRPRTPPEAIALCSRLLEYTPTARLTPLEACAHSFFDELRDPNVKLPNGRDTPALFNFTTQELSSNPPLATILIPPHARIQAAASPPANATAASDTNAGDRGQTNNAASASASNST

Chain of Glycogen synthase kinase-3 beta (Homo sapiens, UniProt P49841) (P49841 whole entry): as the sequence (P18266 whole entry) above, with M240V, P390T, A392T, T400A, A402T counted along it

SMILES	IC50 [1] [nM]	IC50 [2] [nM]	EC50 [3] [nM]
Clc1ccc(-c2nn3ncccc3c2-c2ccnc(Nc3ccc4c(c3)OCCO4)n2)cc1	790	> 20000	–
Clc1ccc(-c2nn3ncccc3c2-c2ccnc(Nc3ccccc3)n2)cc1 [GW829055X]	–	> 20000	–
Fc1ccc(-c2nn3ncccc3c2-c2ccnc(Nc3ccccc3)n2)cc1	20	> 20000	–
c1ccc(-c2ccc3c(-c4ccnc(Nc5ccc6c(c5)OCCO6)n4)cnn3n2)cc1	120	> 20000	–
Cc1ccc2c(-c3ccnc(Nc4ccc5c(c4)OCCO5)n3)c(-c3ccc(C(F)(F)F)cc3)nn2n1 [GW832467X]	> 31600	> 20000	–
COCCOc1cnn2ncc(-c3ccnc(Nc4cccc(OC)c4)n3)c2c1	80	> 20000	–
FC(F)(F)c1cccc(-c2nn3ncccc3c2-c2ccnc(Nc3ccccc3)n2)c1	150	> 20000	–
Cc1ccc2c(-c3ccnc(Nc4ccccc4)n3)c(-c3ccc(F)cc3)nn2n1 [GW833373X]	20	> 20000	–
Cc1ccc2c(-c3ccnc(Nc4ccc(Cl)c(C(F)(F)F)c4)n3)c(-c3ccccc3)nn2n1	100	> 20000	–
Cc1ccc2c(-c3ccnc(Nc4ccccc4)n3)c(-c3ccccc3)nn2n1	50	–	3600
Fc1ccc(-c2nn3ncccc3c2-c2ccnc(Nc3ccc4c(c3)OCCO4)n2)cc1 [GW827099X]	10	> 20000	–
Cc1ccc2c(-c3ccnc(Nc4ccc(Cl)c(C(F)(F)F)c4)n3)c(-c3cccc(C(F)(F)F)c3)nn2n1	–	> 20000	–
Cc1ccc2c(-c3ccnc(Nc4ccc(Cl)c(C(F)(F)F)c4)n3)c(-c3ccc(F)cc3)nn2n1	50	> 20000	–
Cc1ccc2c(-c3ccnc(Nc4ccc(F)c(F)c4)n3)c(-c3ccc(F)cc3)nn2n1	10	> 20000	–
COc1ccc(-c2nn3ncccc3c2-c2ccnc(Nc3ccccc3)n2)cc1	–	> 20000	–
COc1ccc(-c2nn3ncccc3c2-c2ccnc(Nc3cccc(C(F)(F)F)c3)n2)cc1 [GW827105X]	–	> 20000	–
FC(F)(F)c1cc(Nc2nccc(-c3c(-c4ccc(Cl)cc4)nn4ncccc34)n2)ccc1Cl	–	> 20000	–
Cc1ccc2c(-c3ccnc(Nc4ccccc4)n3)c(-c3cccc(C(F)(F)F)c3)nn2n1	790	> 20000	–
FC(F)(F)c1cc(Nc2nccc(-c3c(-c4ccccc4)nn4ncccc34)n2)ccc1Cl	20	> 20000	–
Cc1ccc2c(-c3ccnc(Nc4cccc(C(F)(F)F)c4)n3)c(-c3ccc(F)cc3)nn2n1	20	> 20000	6800
Fc1ccc(Nc2nccc(-c3c(-c4ccc(Cl)cc4)nn4ncccc34)n2)cc1F	1000	> 20000	–

SMILES	IC50 [1] [nM]	IC50 [2] [nM]	EC50 [3] [nM]
FC(F)(F)c1ccc(-c2nn3ncccc3c2-c2ccnc(Nc3cccc(C(F)(F)F)c3)n2)cc1	> 31600	> 20000	–
Cc1ccc2c(-c3ccnc(Nc4ccccc4)n3)c(-c3ccc(C(F)(F)F)cc3)nn2n1	> 31600	> 20000	–
COc1cccc(Nc2nccc(-c3cnn4ncccc34)n2)c1 [PYRAZOLOPYRIDAZINE 1]	–	–	1300
c1ccc(-c2nn3ncccc3c2-c2ccnc(Nc3ccc4c(c3)OCCO4)n2)cc1	–	> 20000	–
c1ccc(Nc2nccc(-c3c(C4CCCCC4)nn4ncccc34)n2)cc1	> 20000	> 20000	–
CCOc1ccc2c(-c3ccnc(Nc4cc(OC)cc(C(F)(F)F)c4)n3)cnn2n1 [GW807982X]	3160	> 20000	–
Fc1ccc(Nc2nccc(-c3c(-c4cccc(C(F)(F)F)c4)nn4ncccc34)n2)cc1F	310	> 20000	–
Fc1cc(F)cc(Nc2nccc(-c3c(-c4ccccc4)nn4ncccc34)n2)c1	10	> 20000	–
Fc1ccc(Nc2nccc(-c3c(C4CCCCC4)nn4ncccc34)n2)cc1F	> 20000	> 20000	–
FC(F)(F)c1ccc(-c2nn3ncccc3c2-c2ccnc(Nc3ccc(Cl)c(C(F)(F)F)c3)n2)cc1	> 31600	> 20000	–
FC(F)(F)c1cccc(-c2nn3ncccc3c2-c2ccnc(Nc3ccc(Cl)c(C(F)(F)F)c3)n2)c1	1000	> 20000	–
Fc1ccc(-c2nn3ncccc3c2-c2ccnc(Nc3ccc(F)c(F)c3)n2)cc1	–	> 20000	–
Cc1ccc2c(-c3ccnc(Nc4ccc5c(c4)OCCO5)n3)c(-c3ccc(F)cc3)nn2n1	10	> 20000	–
Cc1cc(C)cc(Nc2nccc(-c3cnn4ncccc34)n2)c1	–	–	1800
COc1ccc(-c2nn3ncccc3c2-c2ccnc(Nc3ccc(F)c(F)c3)n2)cc1 [GW827396X]	–	> 20000	–
c1ccc(Nc2nccc(-c3cnn4ncccc34)n2)cc1	–	–	2900
Cc1ccc2c(-c3ccnc(Nc4ccc(F)c(F)c4)n3)c(-c3cccc(C(F)(F)F)c3)nn2n1	–	> 20000	–
Cc1ccc2c(-c3ccnc(Nc4ccc(F)c(F)c4)n3)c(-c3ccccc3)nn2n1	30	> 20000	3400
c1cnn2ncc(-c3ccnc(Nc4ccc5c(c4)OCCO5)n3)c2c1 [GW806290X]	–	–	800
Fc1ccc(-c2nn3ncccc3c2-c2ccnc(Nc3cccc(C(F)(F)F)c3)n2)cc1	20	> 20000	2800
Fc1ccc(Nc2nccc(-c3c(-c4ccc(C(F)(F)F)cc4)nn4ncccc34)n2)cc1F [GW828529X]	> 31600	> 20000	–

Continued, values first:

IC50 [1] [nM]	IC50 [2] [nM]	EC50 [3] [nM]	SMILES
< 10	50	–	Cc1ccc2c(-c3ccnc(Nc4cccc(C(F)(F)F)c4)n3)cnn2n1
100	60	–	COc1cccc(Nc2nccc(-c3cnn4nc(OC)ccc34)n2)c1
10	> 20000	2100	FC(F)(F)c1cccc(Nc2nccc(-c3c(-c4ccccc4)nn4ncccc34)n2)c1
10	> 20000	4200	Fc1ccc(Nc2nccc(-c3c(-c4ccccc4)nn4ncccc34)n2)cc1F
–	> 20000	–	COc1ccc(-c2nn3ncccc3c2-c2ccnc(Nc3ccc(Cl)c(C(F)(F)F)c3)n2)cc1 [GW829115X]
–	> 20000	–	COc1ccc2c(-c3ccnc(Nc4cc(C(F)(F)F)cc(C(F)(F)F)c4)n3)cnn2n1
40	> 20000	–	Fc1ccc(-c2nn3ncccc3c2-c2ccnc(Nc3ccc(Cl)c(C(F)(F)F)c3)n2)cc1
–	> 20000	–	FC(F)(F)c1cccc(Nc2nccc(-c3c(-c4ccc(Cl)cc4)nn4ncccc34)n2)c1
30	100	–	COc1ccc2c(-c3ccnc(Nc4ccc5c(c4)OCCO5)n3)cnn2n1
10	6	–	Cc1ccc2c(-c3ccnc(Nc4ccc5c(c4)OCCO5)n3)cnn2n1
30	> 20000	–	Cc1ccc2c(-c3ccnc(Nc4ccc5c(c4)OCCO5)n3)c(-c3ccccc3)nn2n1
> 31600	> 20000	–	FC(F)(F)c1ccc(-c2nn3ncccc3c2-c2ccnc(Nc3ccc4c(c3)OCCO4)n2)cc1 [GW828525X]
30	10	–	CC(C)c1ccc(Nc2nccc(-c3cnn4ncccc34)n2)cc1 [GW805758X]
120	150	–	CCC(C)c1ccc(Nc2nccc(-c3cnn4ncccc34)n2)cc1 (stereo unspecified)
–	10	1200	COc1cc(Nc2nccc(-c3cnn4ncccc34)n2)cc(C(F)(F)F)c1
790	1260	–	CCCOc1ccc2c(-c3ccnc(Nc4cccc(C(F)(F)F)c4)n3)cnn2n1
50	190	–	Cc1ccc2c(-c3ccnc(Nc4ccc(C(F)(F)F)cc4)n3)cnn2n1
–	3980	–	c1ccc(Nc2nccc(-c3c(C4CC4)nn4ncccc34)n2)cc1
–	2500	–	FC(F)(F)c1cccc(Nc2nccc(-c3cnn4nc(-c5ccccc5)ccc34)n2)c1 [GW819077X]
–	10	1000	FC(F)(F)c1cc(Nc2nccc(-c3cnn4ncccc34)n2)ccc1Cl

IC50 [1] [nM]	IC50 [2] [nM]	EC50 [3] [nM]	SMILES
–	1	–	N#Cc1ccc(Nc2nccc(-c3cnn4ncccc34)n2)cc1
–	6	–	c1cnn2ncc(-c3ccnc(Nc4ccc5c(c4)OCCCO5)n3)c2c1
190	790	–	COc1cc(Nc2nccc(-c3cnn4nc(OC)ccc34)n2)cc(C(F)(F)F)c1
–	10	–	FC(F)(F)c1cc(Br)cc(Nc2nccc(-c3cnn4ncccc34)n2)c1
120	190	–	COc1cc(Nc2nccc(-c3cnn4nc(OC)ccc34)n2)cc(OC)c1
10	50	1500	COc1ccc(Nc2nccc(-c3cnn4ncccc34)n2)cc1OC [PYRAZOLOPYRIDAZINE 2]
150	5000	–	Cc1ccc2c(-c3ccnc(Nc4ccc5c(c4)OCCO5)n3)c(-c3cccc(C(F)(F)F)c3)nn2n1
190	1990	–	CCOc1ccc2c(-c3ccnc(Nc4cccc(C(F)(F)F)c4)n3)cnn2n1 [GW811761X]
10	1	–	Clc1ccc(Nc2nccc(-c3cnn4ncccc34)n2)cc1Cl
10	3980	1600	c1ccc(Nc2nccc(-c3c(-c4ccccc4)nn4ncccc34)n2)cc1
10	20	–	COc1cc(Nc2nccc(-c3cnn4nc(C)ccc34)n2)cc(C(F)(F)F)c1
–	20	–	O=[N+]([O-])c1ccc(Nc2nccc(-c3cnn4ncccc34)n2)cc1
10	8	–	Oc1ccc2c(-c3ccnc(Nc4cccc(C(F)(F)F)c4)n3)cnn2n1
50	160	–	COc1ccc2c(-c3ccnc(Nc4cccc(C(F)(F)F)c4)n3)cnn2n1
50	500	–	COc1ccc2c(-c3ccnc(Nc4ccc(C#N)cc4)n3)cnn2n1
70	20	–	COc1ccc2c(-c3ccnc(Nc4ccc([N+](=O)[O-])cc4)n3)cnn2n1
–	1	1000	Fc1cc(F)cc(Nc2nccc(-c3cnn4ncccc34)n2)c1
–	310	1000	Clc1cc(Cl)cc(Nc2nccc(-c3cnn4ncccc34)n2)c1
–	10	–	c1cnn2ncc(-c3ccnc(Nc4ccc5c(c4)OCO5)n3)c2c1
